From paper PMC7421780 (Future Medicinal Chemistry, 2020)
Where two headings read alike, the source gives them in different places.

How the values were obtained:
Mtb H37Rv [1] = assay: Primary screen: MIC, IC50 and IC90 under aerobic conditions; assay type: cell-based; conditions: Mycobacterium tuberculosis
Mtb H37Rv [2] = assay: Secondary assay: MIC, IC50 and IC90 repeated at lower starting concentrations; assay type: cell-based; conditions: Mycobacterium tuberculosis; for MIC: read-out: MIC aerobic condition
NRP Mtb H37Rv = assay: microbe, parasite or virus in culture; assay type: cell-based; conditions: Mycobacterium tuberculosis
intracellular Mtb H37Rv = assay: microbe, parasite or virus in culture; assay type: cell-based; conditions: Mycobacterium tuberculosis; for IC50: THP-1, read-out: IC50 intracell; for IC90: THP-1, read-out: IC90 intracell
physchem = conditions: aqueous with cosolvent or surfactant or cyclodextrin, kinetic from dmso stock
in vitro [3] = conditions: human
Mtb H37Rv [4] = assay: Minimal bactericidal concentration; assay type: cell-based, Mycobacterium tuberculosis; conditions: Mtb H37Rv aerobic
Mycobacterium avium = assay: MIC against nontuberculous mycobacteria, Alamar blue; assay type: cell-based
Mycobacterium abscessus = assay: MIC, IC50, IC90 against nontuberculous mycobacteria; assay type: cell-based
CYP3A4 = CYP3A4 (Homo sapiens, UniProt P08684); assay: Cytochrome P450 inhibition; assay type: in vitro ADME
Chain of CYP3A4 (P08684 whole entry): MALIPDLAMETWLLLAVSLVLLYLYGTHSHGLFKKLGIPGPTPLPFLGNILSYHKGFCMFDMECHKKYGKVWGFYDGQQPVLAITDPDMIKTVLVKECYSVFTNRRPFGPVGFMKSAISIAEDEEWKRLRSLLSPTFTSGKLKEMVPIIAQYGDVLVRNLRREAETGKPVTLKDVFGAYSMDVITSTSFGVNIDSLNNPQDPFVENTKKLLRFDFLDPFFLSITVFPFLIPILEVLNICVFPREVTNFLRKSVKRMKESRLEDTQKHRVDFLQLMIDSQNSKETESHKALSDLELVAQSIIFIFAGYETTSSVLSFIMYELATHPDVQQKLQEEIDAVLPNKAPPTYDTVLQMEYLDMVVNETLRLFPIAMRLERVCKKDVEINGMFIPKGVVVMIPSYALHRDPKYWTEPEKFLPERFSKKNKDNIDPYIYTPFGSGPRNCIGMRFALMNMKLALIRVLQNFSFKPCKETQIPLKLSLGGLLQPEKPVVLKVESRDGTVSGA

CYP2C9 = CYP2C9 (Homo sapiens, UniProt P11712); assay: Cytochrome P450 inhibition; assay type: in vitro ADME
Chain of CYP2C9 (P11712 whole entry): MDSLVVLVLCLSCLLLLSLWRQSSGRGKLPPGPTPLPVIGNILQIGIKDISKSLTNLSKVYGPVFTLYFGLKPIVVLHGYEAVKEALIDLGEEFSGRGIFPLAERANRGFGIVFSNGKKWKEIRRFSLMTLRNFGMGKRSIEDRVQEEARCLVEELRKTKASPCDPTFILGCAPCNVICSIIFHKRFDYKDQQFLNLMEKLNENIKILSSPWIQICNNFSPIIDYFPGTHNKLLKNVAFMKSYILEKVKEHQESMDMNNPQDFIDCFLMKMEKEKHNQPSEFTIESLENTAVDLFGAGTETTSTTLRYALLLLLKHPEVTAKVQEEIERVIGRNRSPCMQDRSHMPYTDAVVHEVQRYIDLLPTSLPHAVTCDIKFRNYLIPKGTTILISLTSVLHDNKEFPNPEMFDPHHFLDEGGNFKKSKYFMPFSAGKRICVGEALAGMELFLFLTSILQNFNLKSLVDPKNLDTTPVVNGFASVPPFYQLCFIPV

HepG2 cytotoxicity = assay type: cell-based; conditions: human, HepG2 cells
[5] = Human plasma, equilibrium dialysis
in vitro [6] = conditions: human; remark: listed apart in the source
CYP2D6 = CYP2D6 (Homo sapiens, UniProt P10635); assay: biochemical
Chain of CYP2D6 (P10635 whole entry): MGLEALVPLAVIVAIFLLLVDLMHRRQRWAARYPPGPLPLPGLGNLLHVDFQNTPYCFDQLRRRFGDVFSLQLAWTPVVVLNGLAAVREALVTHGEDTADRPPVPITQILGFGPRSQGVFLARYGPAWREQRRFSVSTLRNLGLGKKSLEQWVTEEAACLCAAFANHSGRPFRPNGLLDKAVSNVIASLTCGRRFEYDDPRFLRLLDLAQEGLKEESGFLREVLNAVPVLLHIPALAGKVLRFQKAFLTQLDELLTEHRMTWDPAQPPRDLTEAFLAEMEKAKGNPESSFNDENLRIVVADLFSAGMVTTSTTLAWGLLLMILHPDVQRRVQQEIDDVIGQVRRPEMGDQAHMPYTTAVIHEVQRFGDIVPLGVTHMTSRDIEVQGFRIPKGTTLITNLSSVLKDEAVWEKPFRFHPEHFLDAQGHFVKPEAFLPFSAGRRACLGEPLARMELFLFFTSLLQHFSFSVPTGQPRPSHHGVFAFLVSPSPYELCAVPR

CYP2C8 = molecular target: T1, CYP2C8 (Homo sapiens, UniProt P10632); assay: biochemical
T1 sequence (P10632 1-490): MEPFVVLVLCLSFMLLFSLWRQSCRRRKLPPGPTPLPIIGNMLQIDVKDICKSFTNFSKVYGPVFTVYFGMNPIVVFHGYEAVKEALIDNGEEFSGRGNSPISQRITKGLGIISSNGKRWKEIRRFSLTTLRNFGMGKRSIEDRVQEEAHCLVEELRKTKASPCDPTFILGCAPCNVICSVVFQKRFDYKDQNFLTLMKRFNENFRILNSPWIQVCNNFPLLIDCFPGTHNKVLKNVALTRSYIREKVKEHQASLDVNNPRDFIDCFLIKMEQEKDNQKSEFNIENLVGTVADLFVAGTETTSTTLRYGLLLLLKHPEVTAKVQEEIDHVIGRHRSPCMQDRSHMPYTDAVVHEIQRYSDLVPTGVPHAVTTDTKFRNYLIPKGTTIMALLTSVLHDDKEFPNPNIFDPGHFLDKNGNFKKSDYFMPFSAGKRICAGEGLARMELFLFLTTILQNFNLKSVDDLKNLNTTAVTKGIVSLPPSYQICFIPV

CYP2B6 = molecular target: T2, CYP2B6 (Homo sapiens, UniProt P20813); assay: biochemical
T2 sequence (P20813 1-491): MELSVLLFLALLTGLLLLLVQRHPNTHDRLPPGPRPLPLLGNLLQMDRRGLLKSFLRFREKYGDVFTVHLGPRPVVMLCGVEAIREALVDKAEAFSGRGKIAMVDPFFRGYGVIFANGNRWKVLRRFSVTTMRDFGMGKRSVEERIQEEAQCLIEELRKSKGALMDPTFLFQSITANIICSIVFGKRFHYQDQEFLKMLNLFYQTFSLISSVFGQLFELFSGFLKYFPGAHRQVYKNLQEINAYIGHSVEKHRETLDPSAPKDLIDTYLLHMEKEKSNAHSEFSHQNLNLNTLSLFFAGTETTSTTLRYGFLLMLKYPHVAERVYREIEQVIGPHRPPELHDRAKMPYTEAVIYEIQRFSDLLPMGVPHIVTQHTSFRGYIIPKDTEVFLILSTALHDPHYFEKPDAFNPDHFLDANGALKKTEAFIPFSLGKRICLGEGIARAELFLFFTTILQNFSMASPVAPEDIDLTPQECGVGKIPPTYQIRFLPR

CYP2C19 = CYP2C19 (Homo sapiens, UniProt P33261); assay: biochemical
Chain of CYP2C19 (P33261 whole entry): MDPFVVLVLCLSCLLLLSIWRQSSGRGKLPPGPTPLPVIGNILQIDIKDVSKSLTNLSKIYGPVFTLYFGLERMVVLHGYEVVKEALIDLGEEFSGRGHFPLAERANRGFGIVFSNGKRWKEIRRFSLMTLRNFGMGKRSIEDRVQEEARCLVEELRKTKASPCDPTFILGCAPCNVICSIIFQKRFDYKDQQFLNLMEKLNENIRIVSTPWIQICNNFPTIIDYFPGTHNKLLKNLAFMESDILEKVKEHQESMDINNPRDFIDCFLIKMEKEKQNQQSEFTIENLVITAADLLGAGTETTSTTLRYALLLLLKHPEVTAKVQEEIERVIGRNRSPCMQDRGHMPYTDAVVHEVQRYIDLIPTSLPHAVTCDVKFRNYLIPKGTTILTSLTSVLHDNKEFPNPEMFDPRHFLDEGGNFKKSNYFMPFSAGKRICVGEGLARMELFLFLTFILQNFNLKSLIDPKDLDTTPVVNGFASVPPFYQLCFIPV

[7] = In vitro microsomal stability assay; conditions: human, microsomes
[8] = Caco-2 cell monolayer permeability assay; conditions: human, Caco-2

**Q.** For c1cc(Cn2cnc3ccccc32)nc(Cn2cnc3ccccc32)c1 [Compound 5, 2,6-bis((1H-benzo[d]imidazol-1-yl)methyl)pyridine], which IC50 (Mtb H37Rv [1]) is on record?
**A.** The IC50 was 43 µM.

**Q.** And the IC90 (Mtb H37Rv [1])?
**A.** Its IC90 is > 50 µM.

**Q.** And the MIC (Mtb H37Rv [1])?
**A.** Its MIC is > 50 µM.

**Q.** And the IC50 (Mtb H37Rv [2])?
**A.** Its IC50 is > 50 µM.

**Q.** And the IC90 (Mtb H37Rv [2])?
**A.** Its IC90 is > 50 µM.

**Q.** And the MIC (Mtb H37Rv [2])?
**A.** Its MIC is > 50 µM.

**Q.** What about the IC50 (NRP Mtb H37Rv; Low oxygen) of the same compound?
**A.** Its IC50 is > 50 µM.

**Q.** And the IC90 (NRP Mtb H37Rv; Low oxygen)?
**A.** The IC90 was > 50 µM.

**Q.** And the MIC (NRP Mtb H37Rv; Low oxygen)?
**A.** The MIC was > 50 µM.

**Q.** What about the IC50 (NRP Mtb H37Rv; Normal oxygen) of the same compound?
**A.** Its IC50 is > 50 µM.

**Q.** What about the IC90 (NRP Mtb H37Rv; Normal oxygen) of the same compound?
**A.** The IC90 was > 50 µM.

**Q.** And the MIC (NRP Mtb H37Rv; Normal oxygen)?
**A.** The MIC was > 50 µM.

**Q.** What about the IC50 (intracellular Mtb H37Rv) of the same compound?
**A.** The IC50 was > 200 µM.

**Q.** And the IC90 (intracellular Mtb H37Rv)?
**A.** Its IC90 is > 200 µM.

**Q.** And the solubility (physchem)?
**A.** The solubility was > 200 µM.

**Q.** And the IC50 (in vitro [3])?
**A.** The IC50 was > 50 µM.

**Q.** With O=C(C[n+]1cn(Cc2cccc(Cn3c[n+](CC(=O)c4ccc([N+](=O)[O-])cc4)c4ccccc43)n2)c2ccccc21)c1ccc([N+](=O)[O-])cc1.[Br-].[Br-] [Compound 6f, 1,1′-(pyridine-2,6-diylbis(methylene))bis(3-(2-(4-nitrophenyl)-2-oxoethyl)-1H-benzo[d]imidazol-3-ium) bromide] as the compound, how does the IC50 (Mtb H37Rv [1]) read?
**A.** Its IC50 is 14 µM.

**Q.** What about the IC90 (Mtb H37Rv [1]) of the same compound?
**A.** Its IC90 is 21 µM.

**Q.** What about the MIC (Mtb H37Rv [1]) of the same compound?
**A.** The MIC was 24 µM.

**Q.** And the IC50 (Mtb H37Rv [2])?
**A.** Its IC50 is 11 µM.

**Q.** And the IC90 (Mtb H37Rv [2])?
**A.** Its IC90 is 20 µM.

**Q.** What about the MIC (Mtb H37Rv [2]) of the same compound?
**A.** Its MIC is 16 µM.

**Q.** And the “mechanism of action (bacteriostatic or bactericidal)” value (Mtb H37Rv [4])?
**A.** Its value is “bactericidal”.

**Q.** And the IC50 (NRP Mtb H37Rv; Low oxygen)?
**A.** Its IC50 is 9.7 µM.

**Q.** And the IC90 (NRP Mtb H37Rv; Low oxygen)?
**A.** Its IC90 is 33 µM.

**Q.** And the MIC (NRP Mtb H37Rv; Low oxygen)?
**A.** The MIC was 120 µM.

**Q.** And the IC50 (NRP Mtb H37Rv; Normal oxygen)?
**A.** Its IC50 is 9.9 µM.

**Q.** What about the IC90 (NRP Mtb H37Rv; Normal oxygen) of the same compound?
**A.** Its IC90 is 25 µM.

**Q.** And the MIC (NRP Mtb H37Rv; Normal oxygen)?
**A.** The MIC was 71 µM.

**Q.** And the “activity against M. avium (in words)” value (Mycobacterium avium)?
**A.** Its value is “moderate activity”.

**Q.** And the MIC (Mycobacterium avium; Mycobacterium avium)?
**A.** The MIC was 200 µM.

**Q.** And the “activity against M. abscessus (in words)” value (Mycobacterium abscessus)?
**A.** Its value is “showed activity”.

**Q.** And the IC50 (Mycobacterium abscessus; Mycobacteroides abscessus)?
**A.** Its IC50 is 56 µM.

**Q.** What about the IC90 (Mycobacterium abscessus; Mycobacteroides abscessus) of the same compound?
**A.** The IC90 was 68 µM.

**Q.** What about the MIC (Mycobacterium abscessus; Mycobacteroides abscessus) of the same compound?
**A.** The MIC was 88 µM.

**Q.** And the IC50 (intracellular Mtb H37Rv)?
**A.** Its IC50 is 14 µM.

**Q.** And the IC90 (intracellular Mtb H37Rv)?
**A.** The IC90 was 26 µM.

**Q.** And the IC50 (CYP3A4)?
**A.** The IC50 was 6.6 µM.

**Q.** And the IC50 (CYP3A4; IC50 CYP3A4 – midazolam, probe substrate midazolam, human liver microsomes)?
**A.** Its IC50 is > 20 µM.

**Q.** What about the IC50 (CYP2C9) of the same compound?
**A.** The IC50 was > 20 µM.

**Q.** What about the IC50 at 72 h (HepG2 cytotoxicity) of the same compound?
**A.** The IC50 at 72 h was > 100 µM.

**Q.** What about the “Mean plasma fraction unbound” value [5] of the same compound?
**A.** The value was 7.8%.

**Q.** What about the IC50 (in vitro [3]) of the same compound?
**A.** Its IC50 is > 50 µM.

**Q.** What about the recovery (in vitro [6]) of the same compound?
**A.** Its recovery is 24.5%.

**Q.** And the fraction unbound (in vitro [6]; plasma)?
**A.** The fraction unbound was 0.078.

**Q.** And the IC50 (CYP2D6)?
**A.** The IC50 was 0.92 µM.

**Q.** And the IC50 (CYP2C8)?
**A.** The IC50 was > 20 µM.

**Q.** What about the IC50 (CYP2B6) of the same compound?
**A.** The IC50 was > 20 µM.

**Q.** What about the IC50 (CYP2C19) of the same compound?
**A.** The IC50 was 8.8 µM.

**Q.** And the half-life at 1 μM ([7]; NADPH-dependent T1/2, Human)?
**A.** Its half-life at 1 μM is 1.77 h.

**Q.** What about the microsomal CLint at 1 μM ([7]; NADPH-free CLint) of the same compound?
**A.** The microsomal CLint at 1 μM was < 12.8 µL/min/mg.

**Q.** What about the half-life at 1 μM ([7]; NADPH-free T1/2, Human) of the same compound?
**A.** Its half-life at 1 μM is > 3 h.

**Q.** And the Papp B→A [8]?
**A.** Its Papp B→A is 0.095 ×10⁻⁶ cm/s.

**Q.** And the efflux ratio [8]?
**A.** Its efflux ratio is 0.2.
